Results taken from article PMC9895975 (Scientific Reports, 2023).

Columns and labels:
[1] = Intrinsic viscosity, capillary (rolling ball) viscometry; format: physicochemical; conditions: 10.2 mg/mL; 25.0 °C; rolling ball viscometer AMVn; Solomon-Ciuta relation; phosphate-chloride buffer pH 6.8, I = 0.10 M
Protocol: Teicoplanin solutions were analysed using the capillary viscometer AMVn (Anton-Paar, Graz, Austria). This measurement was conducted at a temperature of 25.0 °C based on the rolling ball viscosity method. With a 1.4 mm steel ball moving in a 1.6 mm diameter glass capillary, the flow times (averaged over repeat measurements) of the solvent and solution were then determined. The relative viscosity was calculated from the equation:4 ηrel=ρ·t/ρ0·t0=ηsp+1 where ηsp is the specific viscosity. Then the intrinsic viscosity η was estimated from the Solomon-Ciuta relation[52] at a concentration of 10.2 mg/ml, which gave a sufficient flow time increment between solvent and solution:5 η≈1/c·2ηsp-2lnηrel^1/2

[2] = Global hydrodynamic fit SingleHYDFIT (E2 protocol); format: physicochemical; conditions: assumed molar mass of 18-mer (33835 Da) and of 19-mer (35714 Da), same result for both
Excerpt: To check this, we use a global fitting approach known as SingleHYDFIT[54] which combines intrinsic viscosity data with sedimentation coefficient and dynamic light scattering (hydrodynamic radius) data together, along with the molecular weight and partial specific volume. It involves the minimization of a global fitting function (Fig. 7). The E2 protocol (ratio of ellipsoid) was chosen and run twice: once with an assumed molar mass equivalent of an 18-mer (33835 Da) and once again with an assumed molar mass of 19-mer (35714 Da). Delta (Δ) was plotted against axial ratio, where values < 1 mean oblate and > 1 mean prolate (Fig. 7).

[3] = Sedimentation equilibrium in the analytical ultracentrifuge (SE-AUC, SEDFIT-MSTAR); format: physicochemical; conditions: M* method, 0-10 mg/mL, corresponds to the unimer
[4] = Sedimentation velocity in the analytical ultracentrifuge (SV-AUC); format: physicochemical; conditions: for concentration above which the sedimentation coefficient distribution is unimodal (assembled form): SEDFIT
Protocol: (§1) Teicoplanin samples were prepared in a phosphate-chloride buffered saline solution (PBS, or “Paley buffer”) at pH ~ 6.8 and, by adding NaCl, adjusted to an ionic strength of I = 0.1 mol/L[38].
Experiments to determine sedimentation coefficients and sedimentation coefficient distributions were performed at a temperature of 20.0 °C (at which standardised values are easily calculated) using an Optimal XL-I analytical ultracentrifuge (Beckman Instruments, Palo Alto, CA, USA) with Rayleigh interference optics. Teicoplanin samples (400 μL ) and reference solvent (PBS, 420 μL ) were injected into channels of the 12 mm double sector epoxy cells with sapphire windows. These cells were then centrifuged at 47,500 rpm for a run time of ~ 24 h and the data obtained were analysed in SEDFIT using the least squares, ls-g*(s) processing method. This generates the sedimentation coefficient distribution, g(s) versus sT,b , where sT,b is the sedimentation coefficient, at temperature T in buffer b. The s value in Svedberg units, S = 10^-13 seconds, was then normalised to standard conditions (density ρ20,w and viscosity η20,w of water at 20.0 °C) to give s20,w from the Eq. [43]:2 s20,w=1-υ¯·ρ20,w/1-υ¯·ρT,b·ηT,b/η20,w·sT,b where ρT,b and ηT,b are the density and the viscosity of buffer b at temperature T, respectively.

[5] = Sedimentation equilibrium in the analytical ultracentrifuge (SE-AUC, SEDFIT-MSTAR); format: physicochemical; conditions: for concentration from which the self-association (Mw,app) plateaus: range 0-10 mg/mL, hinge point and M* methods
Protocol: as §1
Sedimentation equilibrium experiments were used to obtain equilibrium concentration distribution profiles for absolute molecular weight measurement. An Optima XL-I analytical ultracentrifuge was also employed but at a lower temperature of 7 °C because of the longer duration of a sedimentation equilibrium experiment compared to sedimenation veloicity. To characterise the self-association/aggregation of teicoplanin, 12 mm double sector epoxy cells were loaded with the same volumes (100 μL ) of both solution and solvent and run at 45,000 rpm for a run time of ~ 48 h. Records of concentration distributions of teicoplanin at equilibrium were subsequently analysed using the model-independent SEDFIT-MSTAR algorithm. Since the non-ideality of teicoplanin is negligible we estimated that apparent weight average molar masses Mw,app were approximately equal to the true weight average molar masses Mw. The multiple concentrations used effectively represent repeats for the sedimentation equilibrium (and sedimentation velocity) experiments.
To determine the weight-average molar masses Mw of teicoplanin, the M* extrapolation method[45] and hinge point analysis, both incorporated in the sedimentation equilibrium-based SEDFIT–MSTAR software[44] were used. […] Rayleigh interference optics provides an accurate record of a sedimentation equilibrium concentration profile c(r) vs r, which means that the local concentration c(r) at the radial position r (cm) is from the rotation centre. M*(r) is a useful operational point average molar mass parameter. M*(r → rb) = Mw is the weight average molar mass over the whole macromolecular distribution, where r is the radial position at the cell base. This method is particularly advantageous for polydisperse/ or self-associating systems. As an additional check, the “hinge point method” (the value of the point weight average molar mass, Mw(r) at the “hinge point” in the sedimentation equilibrium distribution, i.e. the radial position in the cell where the local concentration c(r) = the original loading concentration) provides another estimate for the whole distribution molar mass Mw[44].

[6] = below that value a gel might be formed in solution; cited from earlier work
Protocol: Although it is important to explore how teicoplanin binds to the Lipid II moiety regardless of its phenotypes, the knowledge of the biological form of teicoplanin in an aqueous solution is of importance. Teicoplanin and its aglycon derivatives[25] use their long […] chain to attach themselves to the targeted sites. It is known that the minimum volume of solvent required to dissolve 400 mg of teicoplanin is 3 ml because, below that value, a gel might be formed in solution[10]. Teicoplanin derivatives have also been reported to create nano-sized aggregates in aqueous solution[26]. This gelati ...

[7] = Conformational analysis from intrinsic viscosity (ELLIPS1, Einstein-Simha shape factor); format: physicochemical; conditions: for axial ratio (a/b) oblate / axial ratio (a/b) prolate: ELLIPS1; for viscosity shape function ν: [η] = 3.2 mL/g; for swelling ratio vs/υ¯ through dynamic hydration: maximum value, corresponds to a/b = 1 (sphere), confirmed by SingleHYDFIT
Excerpt: In order to interpret this in terms of a molecular shape account needs to be taken of the contribution of the swollen specific volume of the assembly in solution vs (which will be swollen due to a time-averaged association with the surrounding solvent through dynamic hydrogen bonding and other associative processes)[43]:6 [η]=ν.vs
Equation (6) ν is the Einstein-Simha shape factor. vs is likely to be higher for the glycopeptide than for proteins due to the relatively large proportion of carbohydrate which tends to have a greater affinity for solvent. In Table 1 values of the shape factor ν , and their corresponding ellipsoid of revolution axial ratios a/b were calculated based on either a prolate or oblate model, using the routine ELLIPS1 (Harding et al. 1997) for 3 cases of vs/ υ¯ , including the (unlikely) case of no swelling vs/ υ¯ = 1. The maximum value for vs/ υ¯ ~ 2, which corresponds to the minimum value of a/b = 1 (i.e. a sphere, Fig. 6), and this seems the most likely scenario.

[8] = Partial specific volume from solution/solvent densities (digital density meter); format: physicochemical; conditions: c = 10.2 mg/mL; Anton-Paar digital density meter; PBS
Protocol: The partial specific volume υ¯ from solution/ solvent densities was determined using an Anton-Paar (Graz, Austria) digital density meter, and application of:1 υ¯=1/ρ0·1-ρ-ρ0/c at a concentration, c, of 10.2 mg/mL, and where ρ and ρ0 are the densities of the solution and solvent, respectively.

SARS-CoV virus = conditions: cited from earlier work
[9] = Hydrodynamic radius by dynamic light scattering (DLS); format: physicochemical; conditions: 12.5 mg/mL; 20.0 °C; scattering angle 173°; Zetasizer Nano-S; averaged over several measurements
Protocol: Dynamic or quasi-elastic light scattering (DLS or QLS) measurements were made on the fixed scattering angle Zetasizer Nano-S system (Malvern instruments Ltd., Malvern UK) equipped with a 4mW He–Ne laser at a wavelength of 632.8nm[46],[47]. Samples in solution were measured in a quartz cuvette at 20.0 °C. A scattering angle of 173° was used, and collected in manual mode, requiring a measurement duration of 90 s, averaged over several measurements. The resulting data were analysed using the “Zetasizer Software (Version 7.1)” (Malvern Instruments Ltd., Malvern, UK), providing a volume distribution of translational diffusion coefficients based on a form of the CONTIN program. The viscosity of the buffer used was calculated using a solvent builder interface and takes the effects of buffer salts into account. The z-average hydrodynamic radii rz (nm), were evaluated from the z-average translational diffusion coefficients Dz by the Stokes–Einstein Eq. [47]:3 rz=kBT/{6πηoDz} where kB is the Boltzmann constant, T is the absolute temperature and η is the viscosity of the medium. […] (ii) the teicoplanin in its monomeric and multi-meric form were quasi-spheroidal and not asymmetric so there was no angular dependence of the measured Dz, values on anisotropic rotational diffusion effects—i.e. an extrapolation to zero angles was not necessary.

CTSL-dependent viruses = conditions: cited from earlier work
[10] = without a lipid chain; cited from earlier work
[11] = phosphate-chloride buffer pH 6.8, I = 0.10 M, 7 °C, SEDFIT-MSTAR
[12] = assumed vs/υ¯ = 1 (no swelling)

teicoplanin A2
intrinsic viscosity [η] [1]: 3.2 ± 0.1 mL/g | axial ratio of the assembly from SingleHYDFIT [2]: 1.0 ± 0.0 | weight-average molar mass Mw in 6 M GuHCl [3]: 1.75 ± 0.35 kDa | s-value (not normalised) of teicoplanin dissolved in 6 M GuHCl ([4]; 6 M GuHCl, SV-AUC): ~ 0.7 S | s20,w of teicoplanin dissolved in 6 M GuHCl ([4]; 6 M GuHCl, SV-AUC, normalised to water at 20.0 °C): 1.17 ± 0.01 S | sedimentation coefficient s20,w of the self-associated assembly (upper extrapolated value) ([4]; phosphate-chloride buffer pH 6.8, I = 0.10 M, 20.0 °C, 47,500 rpm, ~24 h, Rayleigh interference optics, SEDFIT ls-g*(s), s vs c plot, 0-5 mg/mL): ~ 4.65 S | concentration above which the sedimentation coefficient distribution is unimodal (assembled form) ([4]; phosphate-chloride buffer pH 6.8, I = 0.10 M, 20.0 °C): > 500 µg/mL | concentration above which the sedimentation coefficient distribution is unimodal (assembled form) ([4]; phosphate-chloride buffer pH 6.8, I = 0.10 M, 20.0 °C, listed as teicoplanin): > 500 µg/mL | sedimentation coefficient, lower extrapolated value (predicted value for a spheroidal unimer) ([4]; phosphate-chloride buffer pH 6.8, I = 0.10 M, 20.0 °C, s vs c plot extrapolated to low concentration): ~ 0.7 S | concentration below which the assembly dissociates (separation, bimodality) ([4]; phosphate-chloride buffer pH 6.8, I = 0.10 mol/L, 20.0 °C): < 500 µg/mL | number of monomers in the assembly (mers), M* method ([5]; from plateau Mw 33,000 g/mol, buffer pH 6.8, I = 0.10 M): ~ 18 mers | number of monomers in the assembly (mers), hinge point method ([5]; from plateau Mw 35,400 g/mol, buffer pH 6.8, I = 0.10 M): ~19 ± 1 mers | plateau weight average molar mass Mw,app, M* method ([5]; phosphate-chloride buffer pH 6.8, I = 0.10 M, 7 °C, 45,000 rpm, ~48 h, SEDFIT-MSTAR, c from 1 mg/mL): 33,000 ± 1000 g/mol | plateau weight average molar mass Mw,app, hinge point method ([5]; phosphate-chloride buffer pH 6.8, I = 0.10 M, 7 °C, 45,000 rpm, ~48 h, SEDFIT-MSTAR, c from 1 mg/mL up to 10 mg/mL): 35,400 ± 1000 g/mol | apparent weight average molar mass Mw extrapolated to zero concentration (M* method) [5, 11]: 1.9 ± 0.1 kDa | weight average molar mass extrapolated to zero concentration, hinge point method Mw(rhinge) [5, 11]: 2.7 ± 0.1 kDa | concentration from which the self-association (Mw,app) plateaus ([5]; phosphate-chloride buffer pH 6.8, I = 0.10 M): > 1000 µg/mL | concentration from which the self-association (Mw,app) plateaus ([5]; phosphate-chloride buffer pH 6.8, I = 0.10 M, listed as teicoplanin): 1000 µg/mL | size of the self-associated assembly (n-mer), overall ([5]; phosphate-chloride buffer pH 6.8, I = 0.10 mol/L, AUC and viscometry combined): 18–19 mer | minimum volume of solvent required to dissolve 400 mg [6]: 3 mL | swollen specific volume vs [7, 12]: 0.64 mL/g | axial ratio (a/b) oblate [7, 12]: 5.4 | axial ratio (a/b) prolate [7, 12]: 4.3 | viscosity shape function ν [7, 12]: 5.0 | swollen specific volume vs ([7]; assumed vs/υ¯ = 1.5): 0.96 mL/g | axial ratio (a/b) oblate ([7]; assumed vs/υ¯ = 1.5): 2.8 | axial ratio (a/b) prolate ([7]; assumed vs/υ¯ = 1.5): 2.5 | viscosity shape function ν ([7]; assumed vs/υ¯ = 1.5): 3.3 | swollen specific volume vs ([7]; assumed vs/υ¯ = 2): 1.28 mL/g | axial ratio (a/b) oblate ([7]; assumed vs/υ¯ = 2): 1 | axial ratio (a/b) prolate ([7]; assumed vs/υ¯ = 2): 1 | viscosity shape function ν ([7]; assumed vs/υ¯ = 2): 2.5 | swelling ratio vs/υ¯ through dynamic hydration [7]: ~ 2 | swelling ratio vs/υ¯ through dynamic hydration ([7]; listed as teicoplanin): 2 | partial specific volume υ¯ [8]: 0.64 ± 0.01 mL/g | effect on cell entry of the SARS-CoV virus (SARS-CoV virus): inhibited cell entry | z-average hydrodynamic radius rz [9]: ~ 3.2 nm

vancomycin
antiviral activity against CTSL-dependent viruses (CTSL-dependent viruses): cannot express antiviral activity

teicoplanin aglycon
self-association in solution [10]: dimerise weakly
